Measurements published in patent US20220133702A1, “CYSTIC FIBROSIS TRANSMEMBRANE CONDUCTANCE REGULATOR MODULATORS FOR TREATING AUTOSOMAL DOMINANT POLYCYSTIC KIDNEY DISEASE” (The Johns Hopkins University, priority 2020, published 2022).

What was measured:
cAMP = cAMP level in mouse kidney tissue; assay type: in vivo; conditions: PC1 conditional knockout mouse kidneys, VX-809-treated vs untreated
Procedure: FIG. 4A, FIG. 4B, FIG. 4C, FIG. 4D, and FIG. 4E show (FIG. 4A-FIG. 4B) cAMP levels are reduced by VX-809. (FIG. 4A) cAMP levels in mouse tissue were reduced by VX-809. The kidney samples (n=6) analyzed were taken from those depicted in FIG. 1. (FIG. 4B) Confluent PN and PH cells were treated with VX-809 (10 μM) or DMSO for 16 hand then treated with forskolin (100 μM) for 30 min before the cells were harvested for the assay. Columns represent means±SEM. Statistical analysis was performed using a two-tailed Student's t-test. Each set of data is from three individual wells; Note that resting cAMP is greater in PN vs PH cells as previously shown (25). Also note that forskolin caused a large increase in cAMP. A smaller increase occurred with IBMX. […] The data were analyzed by non-parametric t-test. […]
It has been shown previously in both animal and cell culture models of ADPKD that cells lacking functional PC1 have elevated cAMP levels when compared to normal. To assess the effect of CFTR correctors, cAMP activity was measured in PC1 conditional knockout mouse kidneys and in PN cells that were either left untreated or treated with VX-809. […]
Cyclic AMP assay. […] Cyclic AMP levels were measured with a direct cAMP Enzyme Immunoassay Kit (Sigma, #CA200) according to the manufacturer's protocol. The results are expressed as pmole/ml. […]

GADD153 = GADD153 immunostaining of kidney sections; assay type: in vivo; conditions: PN21 mouse kidney sections, vs DMSO
Description: FIG. 12A, FIG. 12B, and FIG. 12C show GADD153 expression in kidneys of Pkd1fllfl; Pax8^rtTA; TetO-cre mice. Immunofluorescence images representing the GADD expression (green) in DMSO (FIG. 12A) or VX-809 (FIG. 12B) treated PN21 Pkd1^fl/fl mouse. Columns (FIG. 12C) represent % area of GADD immunopositive (green) cells in DMSO or VX-809 treated PN21 Pkd1^fl/fl mouse kidney sections. Data are expressed as mean±1 SEM of DMSO (vehicle)-treated (n=4) and VX-809-treated (n=4) mice. Statistical analysis was performed using a 2-tailed Student t-test. DMSO, dimethyl sulfoxide. Kidneys were fixed in 4% paraformaldehyde as described (62). Used here was the GADD153 antibody (Sc-7351), goat antirabbit (A21429, AlexaFluor 555, 1:1,000; Life Technologies, Carlsbad, Calif.) and DAPI (H-1200; Vector Laboratories, Burlingame, Calif.). Pictures were acquired with a Zeiss microscope equipped a 20× objective. Cells positive for GADD153 and the total number of cells were measured with ImageJ. The results are expressed as percentages;
Given that VX-809 alters an ensemble of Hsps, it was evaluated whether VX-809 alters proteins associated with ER stress. To address this question, the levels of three ER stress-associated proteins were measured, 78-kDa glucose-regulated protein (GRP78), ER oxidoreductin 1 (Ero1) and DNA damage-inducible protein 3 (GADD153), also known as C/EBP homologous protein (CHOP) (37). […]

[1] = system: PC2 in Pkd1^fl/fl; Pax8^rtTA; TetO-cre mice; assay: Immunoblot of PC2 protein in kidney tissue, PC1-null model; assay type: in vivo, mouse; conditions: doxycycline plus VX-809
Procedure: The levels of PC2 protein were analyzed in two mouse models of ADPKD: Pkd1^fl/fl; Pax8^rtTA; TetO-cre, which is PC1 null, and the Pkd1^R3277C/R3277C (pkd1^RC/RC) which has a missense mutation in PC1. Pkd1^RC/RC mice develop a consistent, slowly progressing polycystic kidney disease. Pkd1^RC/RC mice were treated daily with VX-809, beginning at one month, and euthanized at 6 months.
Mice were treated without doxycycline (ND), with doxycycline plus DMSO (D), or with doxycycline plus VX809 (D+VX809), as indicated. Three mice were analyzed for each treatment.
In the Pkd1^fl/fl mice, doxycycline-induced cyst formation increases PC2 protein.

Cc1ccc(NC(=O)C2(c3ccc4c(c3)OC(F)(F)O4)CC2)nc1-c1cccc(C(=O)O)c1 [VX-809, lumacaftor]
cAMP levels in kidneys (cAMP): significantly decreased | GADD153 immunostaining (GADD153): strong reduction | PC2 protein expression (normalized to vinculin) [1]: restores PC2 expression to near-normal values
